{"source": "paper PMC8541945", "about": "(Investigational New Drugs, 2021)", "origin": "cited, not measured here", "key": {"[1]": {"conditions": "following multiple doses, 600-mg dose group"}, "[2]": {"test_system": "patients in the ribociclib group"}, "patients [3]": {"test_system": "patients", "conditions": "single agent, phase 1 trials"}, "[4]": {"test_system": "heavily pretreated patients, HR + /HER2- advanced BC", "set-up": "method as in PMID 28533223", "conditions": "abemaciclib alone, 132 heavily pretreated patients"}, "patients [5]": {"test_system": "patients", "set-up": "method as in PMID 28580882, PMID 28968163"}, "[6]": {"test_system": "brain metastases secondary to HR + /HER2- metastatic BC", "set-up": "method as in earlier work"}}, "data": [{"smiles": "CN(C)C(=O)c1cc2cnc(Nc3ccc(N4CCNCC4)cn3)nc2n1C1CCCC1", "note": "[ribociclib]", "values": [{"measurement": "Cmax, geometric mean [range]", "setting": "[1]", "result": "1940 [range, 859–5860] ng/ml"}, {"measurement": "Patients with dose interruptions or dose reductions due to QTcF increase", "setting": "[2]; 13 patients", "result": 4, "unit": "%"}, {"measurement": "Patients with increase of more than 60 ms from baseline in the QTcF interval", "setting": "[2]; 32 of 335 patients in the ribociclib group", "result": 10, "unit": "%"}, {"measurement": "Patients who experienced SD", "setting": "patients [3]", "result": "approximately 30%"}]}, {"smiles": "CCN1CCN(Cc2ccc(Nc3ncc(F)c(-c4cc(F)c5nc(C)n(C(C)C)c5c4)n3)nc2)CC1", "note": "[abemaciclib]", "values": [{"measurement": "CBR", "setting": "[4]", "result": 42.4, "unit": "%"}, {"measurement": "Confirmed ORR", "setting": "[4]", "result": 19.7, "unit": "%"}, {"measurement": "Median OS", "setting": "[4]", "result": 17.7, "unit": "months"}, {"measurement": "Median PFS", "setting": "[4]", "result": 6.0, "unit": "months"}, {"measurement": "Grade 3/4 neutropenia", "setting": "patients [5]", "result": 21.1, "unit": "%"}, {"measurement": "Confirmed objective intracranial response", "setting": "[6]", "result": 6, "unit": "%"}, {"measurement": "Intracranial clinical benefit rate (CR + PR + SD persisting for ≥ 6 months)", "setting": "[6]", "result": 25, "unit": "%"}, {"measurement": "Patients with a decrease in the sum of intracranial target lesions", "setting": "[6]", "result": 38, "unit": "%"}]}, {"smiles": "CC(=O)c1c(C)c2cnc(Nc3ccc(N4CCNCC4)cn3)nc2n(C2CCCC2)c1=O", "note": "[palbociclib]", "values": [{"measurement": "Patients who experienced SD", "setting": "patients [3]", "result": "approximately 30%"}]}]}
